“And” between values parts separate entries of the source, which are not always exact repeats. Identical values can stand only once.
Key:
PDE10A = molecular target: T1, PDE10A (Homo sapiens, UniProt Q9Y233); assay: ITC binding of PTX to the catalytic domain of PDE10A
T1 construct: Catalytic domain of each protein was cloned between BamHI and XhoI restriction sites in; 6xHis-SUMO (N, cleaved yes); made in house; host or cells: E. coli Rosetta 2 (DE3)
From the text: (§1) Supplementary Materials and Methods
(§2) Cloning, expression and purification of catalytic domains of PDE4A, […]
(§3) The full length human PDE4A (1005 bp), PDE4D (981 bp) and PDE10A (957 bp) cDNAs, cloned in pET28a(+) expression vector, were purchased from Biomatik, Canada.
(§4) Catalytic domain of each protein was cloned between BamHI and XhoI restriction sites in 6x-His-SUMO-tagged bacterial expression vector. The catalytic domain constructs of PDE4A, PDE4D and PDE10A were transformed in E. coli Rosetta 2 (DE3) competent cells for expression. After growing the transformed cells at 37 °C, till the OD 600nm reached 0.5-0.7, the culture containing constructs of PDE4A and PDE4D were induced with 0.1 mM IPTG and the cultures were incubated at 15 °C for 16-18 h, whereas those with PDE10A constructs were induced with 0.5 mM at incubated for 35 -40 h followed by cell harvesting. Harvested cells were suspended in lysis buffer (500 mM NaCl, 50 mM Tris - Cl pH 8.0, 10 mM Imidazole, 3 mM β-mercaptoethanol) and lysed by sonication (Qsonica). The lysates were cleared by centrifugation at 20,000g for 1h and supernatant was passed through Ni-NTA affinity column (His-Trap, GE Healthcare). Eluted proteins were subjected to salt exchange with a buffer containing 100 mM NaCl, 50 mM Tris-Cl pH 8.0, 3 mM β-mercaptoethanol. The collected proteins were further purified using ion - exchange chromatography (Q column, Hi-Trap, GE Healthcare) followed by overnight treatment with ULP1 at 4 °C to cleave 6xHis-SUMO tag. The tag was separated from proteins by a subsequent Ni-NTA purification. The proteins were further purified on size exclusion 16/600 200 pg column (GE Healthcare) pre-equilibrated with a buffer (100 mM […]
NaCl, 50 mM Tris pH 8.0, 5% Glycerol, 3 mM β-mercaptoethanol). After purifying with a gel filtration column, purity was determined on 12% SDS -PAGE and all three proteins were more than 95% pure (Supplementary Figure S10). Purified proteins were concentrated to 20mg/ml, flash cooled with liquid nitrogen and stored at -80°C.
Isothermal titration calorimetry (ITC) binding studies
The equilibrium molar dissociation constant (Kd), stoichiometry (N) and […]
of PDE4A, PDE4D and PDE10A were determined at 25°C, using Affinity ITC (TA instruments). Protein and ligand solutions for titration were prepared in the same buffer.
The reference cell was filled with a distilled water and the sample cell was filled with 350 […]
μL of either PDE4A or PDE4D or PDE10A (75-500 µM). […]
sequentially injected in 2 μL per injection (for a total 20 injections), at a regular interval of 120-150s, while stirring at 125 rpm. The ITC generated data were processed using NanoAnalyze software (TA Instruments). The ITC data was deconvoluted with the “independent” curve fitting model using a nonlinear least-squares algorithm. […]

PDE4A = molecular target: T2, PDE4A (Homo sapiens, UniProt P27815); assay: ITC binding of PTX to the catalytic domain of PDE4A
T2 construct: Catalytic domain of each protein was cloned between BamHI and XhoI restriction sites in; 6xHis-SUMO (N, cleaved yes); made in house; host or cells: E. coli Rosetta 2 (DE3)
From the text: as §1, §2, §3, §4
NaCl, 50 mM Tris pH 8.0, 5% Glycerol, 3 mM β-mercaptoethanol). After purifying with a gel filtration column, purity was determined on 12% SDS -PAGE and all three proteins […]
concentrated to 20mg/ml, flash cooled with liquid nitrogen and stored at -80°C.
Isothermal titration calorimetry (ITC) binding studies […]
of PDE4A, PDE4D and PDE10A were determined at 25°C, using Affinity ITC (TA instruments). […]

human lymphocytes cells = conditions: cited from earlier work
mouse bone marrow cells = conditions: cited from earlier work

T1 sequence (Q9Y233 718-1035 limits assumed): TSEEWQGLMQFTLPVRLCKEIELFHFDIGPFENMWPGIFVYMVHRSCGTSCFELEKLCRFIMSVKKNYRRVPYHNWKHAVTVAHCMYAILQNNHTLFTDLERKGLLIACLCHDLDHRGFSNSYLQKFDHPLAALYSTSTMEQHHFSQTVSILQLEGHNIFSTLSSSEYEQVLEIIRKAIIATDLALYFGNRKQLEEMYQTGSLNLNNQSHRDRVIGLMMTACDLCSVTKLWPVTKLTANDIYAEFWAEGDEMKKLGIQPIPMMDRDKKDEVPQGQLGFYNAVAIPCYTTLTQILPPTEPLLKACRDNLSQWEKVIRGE
T2 sequence (P27815 357-686 limits assumed): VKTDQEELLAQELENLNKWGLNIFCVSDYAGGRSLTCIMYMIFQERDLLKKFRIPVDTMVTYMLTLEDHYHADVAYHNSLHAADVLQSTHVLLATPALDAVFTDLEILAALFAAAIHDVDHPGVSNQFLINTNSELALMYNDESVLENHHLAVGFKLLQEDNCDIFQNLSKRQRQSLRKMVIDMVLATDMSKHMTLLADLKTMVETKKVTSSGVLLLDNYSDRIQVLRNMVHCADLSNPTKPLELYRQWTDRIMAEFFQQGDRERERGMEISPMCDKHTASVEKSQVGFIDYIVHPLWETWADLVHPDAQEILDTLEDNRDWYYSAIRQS

## CC(=O)CCCCn1c(=O)c2c(ncn2C)n(C)c1=O [PTX, pentoxifylline]
PDE10A
  change in enthalpy (ΔH): ~ -8.25±0.04 kcal/mol
  change in entropy (ΔS): ~ -7.8 cal/mol.K
  stoichiometry (N): ~ 1.03±0.04
PDE10A; 25°C, read-out: molar dissociation constant (Kd)
  Kd: 44 µM and ~44 µM
PDE4A
  change in enthalpy (ΔH): ~ -8.3±0.30 kcal/mol
  change in entropy (ΔS): ~ -11.90 cal/mol.K
  stoichiometry (N): ~ 1.08±0.03

## COc1ccc2cc(/C=C/C(=O)CCCCn3c(=O)c4c(ncn4C)n(C)c3=O)ccc2c1 [PTXm-1]
Human lymphocytes cells
  genotoxic effect on human lymphocytes cells in vitro: significantly lower genotoxic effect
Mouse bone marrow cells
  genotoxic effect on mouse bone marrow cells in vivo: significantly lower genotoxic effect

Reference: paper PMC8192908 (Scientific Reports, 2021)
